The values below come from the OligoGym collection.

The data set concerns the target IRF4. The note with it: ASO.

Several values for one entry are separate records, joined by “and”; a condition that tells them apart may be missing. Identical values can stand only once. After the bases stand the sugars from the 5' end (letter, count) and the backbone: PS all phosphorothioate, else s phosphorothioate and o phosphodiester by linkage. Methylation of C is not given here. e = 2'-O-(2-methoxyethyl) (MOE); k = constrained ethyl (cEt); d = 2'-deoxy (DNA)

For GCATAAAAGGTTCCTG (sugars k4 d8 k4, PS), the target mRNA inhibition was 0% (MM.1R, 0.074 µM); -3% (MM.1R, 0.222 µM); -7% (MM.1R, 0.666 µM); 3% (MM.1R, 2 µM); 4% and 9% and 17% (SK-MEL-28, 0.185 µM); 47% (SK-MEL-28, 4 µM). Moreover, the target mRNA inhibition was 34% and 37% and 50% (SK-MEL-28, 5 µM); 75% and 72% and 89% (SK-MEL-28, 15 µM).
Take GCATAGAGCCCGTCGG (sugars k3 d10 k3, PS): the target mRNA inhibition (SK-MEL-28, 4 µM) came to 50%.
As to GCATAGGTCCTTCAGA (sugars k3 d10 k3, PS), where the note is “SK-MEL-28, 4 µM”, the target mRNA inhibition stood at 31%.
As to GCATCGAGATCAGTCT (sugars k3 d10 k3, PS), the target mRNA inhibition (SK-MEL-28, 4 µM) is 57%.
The same measure, in the same setting: the same measure for GCATGACAGGGCGAGG (sugars k3 d10 k3, PS): 43%.
In the case of GCATGAGGGTGACACA (sugars k3 d10 k3, PS), the target mRNA inhibition (SK-MEL-28, 4 µM) was 42%.
Take GCATTTGGAAAAAGCC (sugars k3 d10 k3, PS): where the note is “SK-MEL-28, 4 µM”, the target mRNA inhibition worked out at 71%.
In the case of “GCATTTTATCATCCGA (sugars kddddddddddkekek, PS)”, under “MM.1R, 1 µM”, the target mRNA inhibition is 21%.
“GCATTTTATCATCCGA (sugars kkkdddddddddkeke, PS)”: the target mRNA inhibition (MM.1R, 1 µM) is 32%.
Turning to GCCAAACAAACAGAGG (sugars k3 d10 k3, PS), the target mRNA inhibition (SK-MEL-28, 4 µM) was 22%.
GCCAACTTATAGCACT (sugars k3 d10 k3, PS): the target mRNA inhibition was 17% (MM.1R, 0.0625 µM); -17% (MM.1R, 0.25 µM); 8% (MM.1R, 4 µM).
Turning to GCCAAGGAGGCGGGCC (sugars k3 d10 k3, PS), the target mRNA inhibition (MM.1R, 1 µM) was -2%.
With GCCAAGGATAACCTGA (sugars k3 d10 k3, PS), the target mRNA inhibition by setting is: (MM.1R, 0.0625 µM) 1%; (MM.1R, 0.074 µM) 0%; (MM.1R, 0.222 µM) 5%; (MM.1R, 0.25 µM) 10%; (MM.1R, 0.666 µM) 13%; (MM.1R, 1 µM) 27%. In addition, the target mRNA inhibition was determined as 37% (MM.1R, 2 µM); 59% (MM.1R, 4 µM); 69% (SK-MEL-28, 4 µM).
Regarding GCCACCGACTCTTTTT (sugars k3 d10 k3, PS), the target mRNA inhibition (MM.1R, 1 µM) is -5%.
With GCCCATGTGAGCTCTT (sugars k3 d10 k3, PS), the target mRNA inhibition (SK-MEL-28, 4 µM) came to 50%.
Take GCCCGGGAGAGCGGAG (sugars k3 d10 k3, PS): the target mRNA inhibition (MM.1R, 1 µM) was -32%.
Turning to GCCGAACTCTCCGCCT (sugars k3 d10 k3, PS), where the note is “SK-MEL-28, 4 µM”, the target mRNA inhibition is 51%.
On to GCCGAAGTCAACAGGA (sugars k3 d10 k3, PS), for which the target mRNA inhibition (MM.1R, 1 µM) is -17%.
Take GCCTTCTCGGAACTTT (sugars k3 d10 k3, PS): the target mRNA inhibition (SK-MEL-28, 4 µM) stood at 32%.
Take GCGAATGTGCCTTGTG (sugars k3 d10 k3, PS): the target mRNA inhibition (MM.1R, 1 µM) worked out at 12%.
Same read-out and setting: the same measure for GCGACTGCTGAAAACC (sugars k3 d10 k3, PS): -4%.
As to GCGCACTAAGTGGGCT (sugars k3 d10 k3, PS), under “SK-MEL-28, 4 µM”, the target mRNA inhibition is -10%.
With GCGCATCCCCTGGGCG (sugars k3 d10 k3, PS), the target mRNA inhibition (SK-MEL-28, 4 µM) is -4%.
Same read-out and setting: the value for GCGCCCAATCACCTTC (sugars k3 d10 k3, PS) was 3%; that for GCGCGGAGGACCTCGC (sugars k3 d10 k3, PS) was 10%; that for GCGGAGGACCTCGCCT (sugars k3 d10 k3, PS) was 8%.
For GCTAAACCTGGCACCA (sugars k3 d10 k3, PS), the target mRNA inhibition (MM.1R, 1 µM) came out at 7%.
With GCTAAAGGAGTGCAGG (sugars k3 d10 k3, PS), the target mRNA inhibition (SK-MEL-28, 4 µM) was found to be 7%.
Regarding GCTAGAACATGATGAG (sugars k3 d10 k3, PS), the target mRNA inhibition (SK-MEL-28, 4 µM) came to 14%.
On the same count and under the same terms, the same measure for GCTCAACCTGGAAGGA (sugars k3 d10 k3, PS): 25%.
Take GCTCAATAATCTCCCA (sugars k3 d10 k3, PS): the target mRNA inhibition (MM.1R, 1 µM) was 0%.
On to GCTCAGAATGAAGTTA (sugars k3 d10 k3, PS), for which the target mRNA inhibition (SK-MEL-28, 4 µM) is 48%.
Turning to GCTCCACAGCAAGGCC (sugars k3 d10 k3, PS), where the note is “SK-MEL-28, 4 µM”, the target mRNA inhibition worked out at 58%.
On the same count and under the same terms, the same measure for GCTCGGAGCGACCCAA (sugars k3 d10 k3, PS): 8%.
Take GCTGAAACGGTCAGCA (sugars k3 d10 k3, PS): the target mRNA inhibition (MM.1R, 1 µM) was found to be 8%.
On the same count and under the same terms, the same measure for GCTGAACCCCACAGGA (sugars k3 d10 k3, PS): 0%.
On to GCTGAATTGTCATGAA (sugars k3 d10 k3, PS), for which the target mRNA inhibition (SK-MEL-28, 4 µM) was 36%.
Same read-out and setting: the same measure for GCTGAGATAAGAAGCA (sugars k3 d10 k3, PS): 32%; for GCTGAGATAGGAAGCA (sugars k3 d10 k3, PS): 19%; for GCTGTGTGTCAAAGAG (sugars k3 d10 k3, PS): 6%.
The same measure, in the same setting: the same measure for GCTTACAAAAACTTGG (sugars k3 d10 k3, PS): 26%; for GCTTACTGTGATTCTG (sugars k3 d10 k3, PS): 34%.
As to GCTTCAAGACAGGTCT (sugars k3 d10 k3, PS), the target mRNA inhibition (MM.1R, 1 µM) was determined as 29%.
Regarding GGAAAGACAAGTGCCC (sugars k3 d10 k3, PS), the target mRNA inhibition (SK-MEL-28, 4 µM) was found to be 54%.
For the sequence GGAAATTCAAGCTTTC (sugars k3 d10 k3, PS), the target mRNA inhibition (SK-MEL-28, 4 µM) turned out to be 64%.
In the case of GGAACAAAAGGTTCCC (sugars k3 d10 k3, PS), the target mRNA inhibition (SK-MEL-28, 4 µM) amounted to 12%.
Turning to GGAACTAGTCGACAGC (sugars k3 d10 k3, PS), under “MM.1R, 1 µM”, the target mRNA inhibition worked out at 18%.
Take GGAAGCACTGGCATCG (sugars k3 d10 k3, PS): the target mRNA inhibition (SK-MEL-28, 4 µM) amounted to 55%.
GGAATGGCGGATAGAT (sugars k3 d10 k3, PS): where the note is “SK-MEL-28, 4 µM”, the target mRNA inhibition was 33%.
Regarding GGAATTTCCATTGGAG (sugars k3 d10 k3, PS), the target mRNA inhibition (SK-MEL-28, 4 µM) is 44%.
Regarding GGACAATGGAGATACT (sugars k3 d10 k3, PS), the target mRNA inhibition (MM.1R, 1 µM) worked out at 3%.
On the same count and under the same terms, the value for GGACACCACCTCGAGG (sugars k3 d10 k3, PS) was 1%.
For GGACAGACCAGGATTC (sugars k3 d10 k3, PS), for the setting “SK-MEL-28, 4 µM”, the target mRNA inhibition is 25%.
GGACGCACGGAGAGGG (sugars k3 d10 k3, PS): where the note is “MM.1R, 1 µM”, the target mRNA inhibition was 15%.
As to GGAGAATTTGGGCTGG (sugars k3 d10 k3, PS), for the setting “SK-MEL-28, 4 µM”, the target mRNA inhibition is 75%.
Still for that read-out and setting: the value for GGAGAGCGGAGGCGGG (sugars k3 d10 k3, PS) was 21%.
Turning to GGAGGATCATAAAGGA (sugars k3 d10 k3, PS), the target mRNA inhibition (MM.1R, 1 µM) came to 32%.
On to GGATAATATACCCCAA (sugars k3 d10 k3, PS), for which, where the note is “SK-MEL-28, 4 µM”, the target mRNA inhibition came out at 64%.
In the case of GGCAAGCTGAATGCTC (sugars k3 d10 k3, PS), the target mRNA inhibition (SK-MEL-28, 4 µM) was found to be 29%.
Same read-out and setting: the same measure for GGCAATGGAGTCTCGC (sugars k3 d10 k3, PS): 50%.
On to “GGCACATCAATGTTTT (sugars kkdddddddddekeke, PS)”, for which the target mRNA inhibition (MM.1R, 1 µM) is 22% and 26%.
As for GGCACGAGGAAGCATA (sugars k3 d10 k3, PS), where the note is “SK-MEL-28, 4 µM”, the target mRNA inhibition amounted to 62%.
The same measure, in the same setting: the value for GGCAGTGGAGCTCCAC (sugars k3 d10 k3, PS) was 73%; that for GGCCAAATTGCAAAGG (sugars k3 d10 k3, PS) was 48%.
For the sequence GGCCACATTAGCAATT (sugars k3 d10 k3, PS), where the note is “MM.1R, 1 µM”, the target mRNA inhibition is 0%.
The same measure, in the same setting: the same measure for GGCCATTCGAGGTGAT (sugars k3 d10 k3, PS): 1%.
Take GGCCCGGGCGCATCCC (sugars k3 d10 k3, PS): the target mRNA inhibition (SK-MEL-28, 4 µM) is 5%.
Consider GGCCGGAGACCTTGAA (sugars k3 d10 k3, PS), for which the target mRNA inhibition (SK-MEL-28, 4 µM) is 3%.
Still for that read-out and setting: the value for GGCCTCCCGCTTGTGG (sugars k3 d10 k3, PS) was -18%; that for GGCCTTAGCCTTCCTG (sugars k3 d10 k3, PS) was 17%.
Turning to GGCCTTGCCAGTGGTG (sugars k3 d10 k3, PS), the target mRNA inhibition (SK-MEL-28, 4 µM) is -12%.
In the case of GGCCTTGCCAGTGGTG (sugars k4 d8 k4, PS), the target mRNA inhibition (SK-MEL-28, 4 µM) is 6%.
In the case of GGCGACGACAGCTGCG (sugars k3 d10 k3, PS), the target mRNA inhibition (MM.1R, 1 µM) is -15%.
For the sequence GGCGAGTTGGCACAAT (sugars k3 d10 k3, PS), the target mRNA inhibition runs as follows: (MM.1R, 0.0625 µM) -13%; (MM.1R, 0.25 µM) 3%; (MM.1R, 1 µM) 49% and 30%; (MM.1R, 4 µM) 60%.
Turning to GGCGCGCTCCCTTCCC (sugars k3 d10 k3, PS), the target mRNA inhibition (SK-MEL-28, 4 µM) amounted to 10%.
As for GGCGGACACGCCCGAC (sugars k3 d10 k3, PS), the target mRNA inhibition (MM.1R, 1 µM) was 7%.
As for GGCGGAGCATCAACAA (sugars k3 d10 k3, PS), where the note is “SK-MEL-28, 4 µM”, the target mRNA inhibition came out at 60%.
The same measure, in the same setting: the same measure for GGCGGAGCTTCCCGTT (sugars k3 d10 k3, PS): 26%.
Same read-out and setting: the same measure for GGCTATCAGGATCTCA (sugars k3 d10 k3, PS): 45%; for GGCTCAACCTGGAAGG (sugars k3 d10 k3, PS): 29%; for GGCTGAACTGTGTAAT (sugars k3 d10 k3, PS): 72%.
Regarding GGCTTTGTGTTTAAGT (sugars k3 d10 k3, PS), the target mRNA inhibition (SK-MEL-28, 4 µM) was 23%.
For GGGAAAGAGCTTTGGT (sugars k3 d10 k3, PS), the target mRNA inhibition (SK-MEL-28, 4 µM) was found to be 5%.
Consider GGGAACAGGACCTGGT (sugars k3 d10 k3, PS), for which the target mRNA inhibition (SK-MEL-28, 4 µM) is 55%.
On the same count and under the same terms, the same measure for GGGAACCTGAAAAGAG (sugars k3 d10 k3, PS): 21%.
The same measure, in the same setting: the value for GGGAATTTCCATTGGA (sugars k3 d10 k3, PS) was 44%; that for GGGAGATCCGGCAGCC (sugars k4 d8 k4, PS) was -13%.
